In patent publication US20040024024A1, “Aromatic sulfone hydroxamates and their use as protease inhibitors” (priority 2001, published 2004):

Tests used:
Human recombinant MMP-2 = biological target: T1, Human recombinant MMP-2 (Homo sapiens, UniProt P08253); experiment: In vitro MMP inhibition, IC50 determination (fluorogenic substrate I); type: biochemical
T1 construct: made in house; host or cells: MMP-2-transfected p2AHT2 cells
T1 sequence (P08253 110-660): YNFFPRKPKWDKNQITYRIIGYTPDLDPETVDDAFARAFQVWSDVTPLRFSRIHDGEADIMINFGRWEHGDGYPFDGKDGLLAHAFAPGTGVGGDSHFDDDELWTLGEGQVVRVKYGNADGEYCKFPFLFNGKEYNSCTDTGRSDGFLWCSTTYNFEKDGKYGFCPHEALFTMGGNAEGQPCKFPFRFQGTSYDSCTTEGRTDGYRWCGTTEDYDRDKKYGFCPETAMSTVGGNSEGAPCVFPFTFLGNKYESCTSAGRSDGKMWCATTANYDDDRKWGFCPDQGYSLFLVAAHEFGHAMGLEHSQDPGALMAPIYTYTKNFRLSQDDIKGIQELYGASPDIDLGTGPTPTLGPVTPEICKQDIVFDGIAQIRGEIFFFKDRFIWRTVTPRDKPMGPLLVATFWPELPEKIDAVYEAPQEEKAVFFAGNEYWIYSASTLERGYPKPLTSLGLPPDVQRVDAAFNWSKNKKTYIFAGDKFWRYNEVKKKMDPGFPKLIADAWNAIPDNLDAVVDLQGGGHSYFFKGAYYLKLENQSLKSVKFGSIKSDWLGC
Procedure: (§1) Several hydroxamates and salts thereof were analyzed in in vitro assays to determine their ability to inhibit the MMP cleavage of peptide substrates. Inhibition (Ki) and IC50 constants were calculated from the assayed hydroxamate-MMP interactions.
(§2) Human recombinant MMP-1, MMP-2, MMP-9, MMP-13, and MMP-14 were used in this assay. All enzymes were prepared in Assignee's laboratories following usual laboratory procedures. Protocols for the preparation and use of these enzymes are available in the scientific literature. See, e.g., Enzyme Nomenclature (Academic Press, San Diego, Calif., 1992) (and the citations therein). See also, Frije et al., J. Biol. Chem., 26(24), 16766-73 (1994).
The MMP-2 proenzyme was purified by gelatin Sepharose chromatography from MMP-2-transfected p2AHT2 cells provided by Dr. Gregory Goldberg of Washington University (St. Louis, Mo.).
(§3) All MMPs were activated using 4-aminophenylmercuric acetate (“APMA”, Sigma Chemical, St. Louis, Mo.) or trypsin. MMP-9 also was activated using human recombinant MMP-3 (purified in Assignee's laboratory following standard cloning and purification techniques).
(§4) Two fluorogenic, methoxycoumarin-containing polypeptide substrates were used in the MMP inhibition assays:
(§5) MCA-ProLeuGlyLeuDpaAlaArgNH2 (I)
(§6) Here, “Dpa” is 3-(2,4-dinitrophenyl)-L-2,3-diaminopropionyl group, and “MCA” is 7-methoxycoumarin-4-yl acetyl. Substrate (I) was purchased from Baychem (Redwood City, Calif.), and substrate II was prepared Assignee's laboratory. Substrate I was used in the IC50 determination assays, while substrate II was used in the Ki determination assays. In the absence of MMP inhibitory activity, either substrate is cleaved at the Gly-Leu peptide bond. This cleavage separates the highly fluorogenic peptide from the 2,4-dinitrophenyl quencher, thus resulting in increase of fluorescent intensity.
(§7) The stock solutions of the assayed hydroxamates (or salts thereof) were prepared in 1% dimethyl sulfoxide (DMSO). These stock solutions were diluted in Buffer A (100 mM Tris-HCl, 100 mM NaCl, 10 mM CaCl2, 0.05% polyoxyethylene 23 lauryl ether, pH 7.5) to obtain solutions with different hydroxamate concentrations, i.e., assay solutions with different concentrations of the assayed MMP inhibitory compound. The experiment controls contained the same amount of Buffer A/DMSO as the assayed sample, but contained no hydroxamate (or salt thereof).
(§8) The assays from which the IC50 determinations were made were performed as follows. The MMPs were activated with either trypsin or APMA (4-aminophenylmercuric acetate, Sigma Chemical, St. Louis, Mo.). The assayed hydroxamate samples were, incubated in Microfluorrm White Plates (Dynatech, Chantilly, VA) and analyzed on a Perkin Elmer L550 plate reader (Norwalk, Conn.). The excitation wavelength was 328 nm, and the emission wavelength—415 nm. All samples (assayed hydroxamates and controls) were incubated in separate plates at room temperature in the presence of 4 μM of MMP substrate (I). As stated in the previous paragraph, samples containing varying concentrations of the same assayed hydroxamate were prepared. Inhibition was measured as a reduction in fluorescent intensity as a function of MMP inhibitor concentration.

Human recombinant MMP-13 = biological target: T2, Human recombinant MMP-13 (Homo sapiens, UniProt P45452); experiment: as above; type: biochemical
T2 construct: made in house; host or cells: baculovirus / insect cells
Procedure: as §1, §2
The expressed proenzyme was first purified over a heparin agarose column, and then over a chelating zinc chloride column. The proenzyme was then activated by APMA for use in the assay. Further details on baculovirus expression systems may be found in, for example, Luckow et al., J. Virol., 67, 4566-79 (1993). See also, O'Reilly et al, Baculovirus Expression Vectors: A Laboratory Manual (W. H. Freeman and Co., New York, N.Y., 1992). See also, King et al., The Baculovirus Expression System: A Laboratory Guide (Chapman & Hall, London, England, 1992).
as §3, §4, §5, §6, §7, §8

[1] = value outside parentheses (Ki in parenthesis)

IC50 (Human recombinant MMP-2; [1]) [nM] | IC50 (Human recombinant MMP-13; [1]) [nM] | IC50 (Human recombinant MMP-2; value outside parentheses) [nM] | IC50 (Human recombinant MMP-13; value outside parentheses) [nM] | SMILES | further results
12.8 | 12.7 | – | – | O=C(NO)C1(S(=O)(=O)c2ccc(OCCCS(=O)(=O)N3CCOCC3)cc2)CCOCC1 [Example 315] | –
326 | 9 | – | – | O=C(NCCCOc1ccc(S(=O)(=O)C2(C(=O)NO)CCOCC2)cc1)C1CCCC1 [Example 400] | –
– | – | 36.6 | 3.3 | O=C(NCCOc1ccc(S(=O)(=O)C2(C(=O)NO)CCOCC2)cc1)c1ccc(-c2ccccc2)cc1 [Example 604] | –
– | – | – | – | COc1ccc(/C(C#N)=C/CCOc2ccc(S(=O)(=O)C3(C(=O)NO)CCOCC3)cc2)cc1 [Example 236] | IC50 (Human recombinant MMP-2; value outside parenthesis): 7.6 nM; IC50 (Human recombinant MMP-13; value outside parenthesis): 3.4 nM
– | – | 13.7 | 3.6 | COc1cccc(CC(=O)NCCOc2ccc(S(=O)(=O)C3(C(=O)NO)CCOCC3)cc2)c1 [Example 602] | –
103 | 8.6 | – | – | CON(C)C(=O)CCCCOc1ccc(S(=O)(=O)C2(C(=O)NO)CCOCC2)cc1 [Example 329] | –
– | – | 34.3 | 6.6 | CN(C)c1cccc(CCCOc2ccc(S(=O)(=O)C3(C(=O)NO)CCN(C4CC4)CC3)cc2)c1 [Example 613] | –
1340 | 565 | – | – | NS(=O)(=O)CCCOc1ccc(S(=O)(=O)C2(C(=O)NO)CCOCC2)cc1 [Example 296] | –
– | – | – | – | COCCN1CCC(C(=O)NO)(S(=O)(=O)c2ccc(OCCCn3ncc(-c4ccc(OC)cc4)c3C(F)(F)F)cc2)CC1 [Example 202] | IC50 (Human recombinant MMP-2; value outside parenthesis): 1600 nM; IC50 (Human recombinant MMP-13; value outside parenthesis): 41.9 nM
– | – | – | – | COc1ccc(C(=O)NC(C)(C)CCOc2ccc(S(=O)(=O)C3(C(=O)NO)CCNCC3)cc2)cc1 [Example 225] | IC50 (Human recombinant MMP-2; value outside parenthesis): 2330 nM; IC50 (Human recombinant MMP-13; value outside parenthesis): 17.8 nM
– | – | 2890 | 36.9 | O=C(COc1ccc(S(=O)(=O)C2(C(=O)NO)CCOCC2)cc1)Nc1cccc(-c2ccccc2)c1 [Example 642] | –
– | – | – | – | COCCN1CCC(C(=O)NO)(S(=O)(=O)c2ccc(OCCCn3nnc(-c4ccc(S(C)(=O)=O)cc4)n3)cc2)CC1 [Example 104] | IC50 (Human recombinant MMP-2; value outside parenthesis): 44.2 nM; IC50 (Human recombinant MMP-13; value outside parenthesis): 0.8 nM
12.7 | 4.6 | – | – | CC(C)N(Cc1ccc(C(=O)CCCCOc2ccc(S(=O)(=O)C3(C(=O)NO)CCOCC3)cc2)cc1)C(C)C [Example 344] | –
313 | 41 | – | – | O=C(NO)C1(S(=O)(=O)c2ccc(OCCCN3CCCc4ccccc43)cc2)CCOCC1 [Example 412] | –
9000 | 1590 | – | – | O=C(c1ccc(OC(F)(F)F)cc1)N1CC[C@@H](Oc2ccc(S(=O)(=O)C3(C(=O)NO)CCOCC3)cc2)C1 [Example 423] | –
41.9 | 12.2 | – | – | COc1cc2c(cc1OC)CN(CCCCOc1ccc(S(=O)(=O)C3(C(=O)NO)CCOCC3)cc1)C(C)C2 (stereo not shown) [Example 337] | –
155 | 1.5 | – | – | O=C(NCCCOc1ccc(S(=O)(=O)C2(C(=O)NO)CCOCC2)cc1)c1ccc([N+](=O)[O-])cc1 [Example 369] | –
– | – | 10.1 | 0.6 | CC(=O)c1cccc(CCCOc2ccc(S(=O)(=O)C3(C(=O)NO)CCOCC3)cc2)c1 [Example 586] | –
– | – | 160 | 14.8 | COc1ccc(NC(=O)NCCCOc2ccc(S(=O)(=O)C3(C(=O)NO)CCOCC3)cc2)c(C)c1 [Example 498] | –
– | – | – | – | COCCN1CCC(C(=O)NO)(S(=O)(=O)c2ccc(OCCCn3nc(C(F)(F)F)cc3-c3ccc(OC)cc3)cc2)CC1 [Example 198] | IC50 (Human recombinant MMP-2; value outside parenthesis): 4530 nM; IC50 (Human recombinant MMP-13; value outside parenthesis): 835 nM
